Measurements as given in patent US12503475B2 (Centessa Pharmaceuticals (UK) Limited, priority 2020, dated 2025).
Read-outs that look alike come from different tables or passages of the source.

Biological target: T1, human orexin type 2 receptor (hOX2R) (Homo sapiens, UniProt O43614)
T1 construct: expressed in transfected cells
T1 sequence (O43614 1-444): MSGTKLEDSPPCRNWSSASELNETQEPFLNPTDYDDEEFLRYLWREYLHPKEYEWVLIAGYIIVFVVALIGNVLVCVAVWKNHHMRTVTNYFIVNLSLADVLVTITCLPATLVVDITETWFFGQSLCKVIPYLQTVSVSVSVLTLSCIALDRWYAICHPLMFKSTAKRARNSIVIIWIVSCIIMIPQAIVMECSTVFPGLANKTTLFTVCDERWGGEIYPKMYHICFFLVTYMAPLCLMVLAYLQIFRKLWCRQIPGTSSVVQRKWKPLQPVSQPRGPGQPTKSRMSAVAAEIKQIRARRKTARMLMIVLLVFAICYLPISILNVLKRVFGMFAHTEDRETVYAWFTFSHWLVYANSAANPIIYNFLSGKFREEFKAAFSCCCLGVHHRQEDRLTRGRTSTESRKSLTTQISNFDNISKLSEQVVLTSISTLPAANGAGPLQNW
Assay: Measurement of orexin type 2 receptor agonist activity (FLIPR calcium fluorescence)
Type: cell-based
Settings: for EC50: read-out: hOx2 pEC50 (converted); for Emax: CHO, read-out: hOx2 Emax (%)
Method in brief: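 Agonism was read as fluorescence in cells stably expressing human OX2R. E. is the response at 10 μM relative to orexin A as full agonist (100%).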

[1] = CHO cells expressing hOX2R, FLIPR calcium fluorescence

Row | SMILES | EC50 [1] [nM] | Emax [1] [%] | Emax [%]
1 | [2H]C([2H])([2H])c1cccc(-c2cccc(C[C@H]3[C@@H](NS(=O)(=O)CF)C4(CC4)CN3C(=O)[C@H]3CCO3)c2F)c1 [Compound 229, 1-fluoro-N-((6S,7S)-6-((2-fluoro-3′-(methyl-d3)-[1,1′-biphenyl]-3-yl)methyl)-5-((R)-oxetane-2-carbonyl)-5-azaspiro[2.4]heptan-7-yl)methanesulfonamide] | 0.0794 to 1 | 90 to 100 | 
2 | CC(C)(O)C(=O)N1CC2(CC2)[C@H](NS(=O)(=O)C2CC2)[C@@H]1Cc1cccc(-c2cc(F)cc(F)c2)c1F [Compound 230, N-((6S,7S)-5-(2-hydroxy-2-methylpropanoyl)-6-((2,3′,5′-trifluoro-[1,1′-biphenyl]-3-yl)methyl)-5-azaspiro[2.4]heptan-7-yl)cyclopropanesulfonamide] | 1 to 10 | 90 to 100 | 
3 | N#CC1(C(=O)N2CC3(CC3)[C@H](NS(=O)(=O)CF)[C@@H]2Cc2cccc(-c3cc(F)cc(F)c3)c2F)CCC1 [Compound 231, N-((6S,7S)-5-(1-cyanocyclobutane-1-carbonyl)-6-((2,3′,5′-trifluoro-[1,1′-biphenyl]-3-yl)methyl)-5-azaspiro[2.4]heptan-7-yl)-1-fluoromethanesulfonamide] | 1 to 10 | 90 to 100 | 
4 | C[C@H](F)C(=O)N1CC2(CC2)[C@H](NS(=O)(=O)CF)[C@@H]1Cc1cccc(-c2cc(F)cc(F)c2)c1F [Compound 232, 1-fluoro-N-((6S,7S)-5-((S)-2-fluoropropanoyl)-6-((2,3′,5′-trifluoro-[1,1′-biphenyl]-3-yl)methyl)-5-azaspiro[2.4]heptan-7-yl)methanesulfonamide] | 0.0794 to 1 | 90 to 100 | 
5 | C[C@@H](F)C(=O)N1CC2(CC2)[C@H](NS(=O)(=O)CF)[C@@H]1Cc1cccc(-c2cc(F)cc(F)c2)c1F [Compound 233, 1-fluoro-N-((6S,7S)-5-((R)-2-fluoropropanoyl)-6-((2,3′,5′-trifluoro-[1,1′-biphenyl]-3-yl)methyl)-5-azaspiro[2.4]heptan-7-yl)methanesulfonamide] | 10 to 100 | 80 to 90 | 
6 | C[C@](O)(C(=O)N1CC2(CC2)[C@H](NS(=O)(=O)CF)[C@@H]1Cc1cccc(-c2ccccc2)c1F)C(F)F [Compound 234, N-((6S,7S)-5-((S)-3,3-difluoro-2-hydroxy-2-methylpropanoyl)-6-((2-fluoro-[1,1′-biphenyl]-3-yl)methyl)-5-azaspiro[2.4]heptan-7-yl)-1-fluoromethanesulfonamide] | 1 to 10 |  | 90 to 100
7 | O=C(NCC1(F)CC1)N1CC2(CC2)[C@H](NS(=O)(=O)C(F)F)[C@@H]1Cc1cccc(-c2cc(F)cc(F)c2)c1F [Compound 235, (6S,7S)-7-((difluoromethyl)sulfonamido)-N-((1-fluorocyclopropyl)methyl)-6-((2,3′,5′-trifluoro-[1,1′-biphenyl]-3-yl)methyl)-5-azaspiro[2.4]heptane-5-carboxamide] | 1 to 10 | 90 to 100 | 
8 | CC(F)(F)C(=O)N1CC2(CC2)[C@H](NS(C)(=O)=O)[C@@H]1Cc1cccc(-c2cccc(F)c2)c1F [Compound 294, N-((6S,7S)-6-((2,3'-difluoro-[1,1′-biphenyl]-3-yl)methyl)-5-(2,2-difluoropropanoyl)-5-azaspiro[2.4]heptan-7-yl)methanesulfonamide] | 10 to 100 | 80 to 90 | 
9 | CS(=O)(=O)N[C@@H]1[C@H](Cc2cccc(-c3ccccc3)c2)N(C(=O)[C@H](O)C(F)(F)F)CC12CC2 [Compound 299, N-((6S,7S)-6-([1,1′-biphenyl]-3-ylmethyl)-5-((S)-3,3,3-trifluoro-2-hydroxypropanoyl)-5-azaspiro[2.4]heptan-7-yl)methanesulfonamide] | 10 to 100 | 90 to 100 | 
10 | CS(=O)(=O)N[C@@H]1[C@H](Cc2cccc(-c3cccc(F)c3)c2)N(C(=O)[C@H]2CCO2)CC12CC2 [Compound 305] | 10 to 100 | 90 to 100 | 
11 | C[C@@H](C#N)C(=O)N1CC2(CC2)[C@H](NS(C)(=O)=O)[C@@H]1Cc1cccc(-c2ccccc2)c1 [Compound 309, N-((6S,7S)-6-([1,1′-biphenyl]-3-ylmethyl)-5-((S)-2-cyanopropanoyl)-5-azaspiro[2.4]heptan-7-yl)methanesulfonamide] | 10 to 100 | 90 to 100 | 
12 | CCCS(=O)(=O)N[C@@H]1[C@H](Cc2cccc(-c3ccccc3)c2)N(C(=O)[C@H]2CCO2)CC12CC2 [Compound 310, N-((6S,7S)-6-([1,1′-biphenyl]-3-ylmethyl)-5-((R)-oxetane-2-carbonyl)-5-azaspiro[2.4]heptan-7-yl)propane-1-sulfonamide] | 10 to 100 | 90 to 100 | 
13 | COCCNC(=O)N1CC2(CC2)[C@H](NS(C)(=O)=O)[C@@H]1Cc1cccc(-c2ccccc2)c1F [Compound 311, (6S,7S)-6-((2-fluoro-[1,1′-biphenyl]-3-yl)methyl)-N-(2-methoxyethyl)-7-(methylsulfonamido)-5-azaspiro[2.4]heptane-5-carboxamide] | 1 to 10 | 90 to 100 | 
14 | CO[C@H]1CCN(C(=O)N2CC3(CC3)[C@H](NS(C)(=O)=O)[C@@H]2Cc2cccc(-c3ccccc3)c2F)C1 [Compound 313, N-((6S,7S)-6-((2-fluoro-[1,1′-biphenyl]-3-yl)methyl)-5-((S)-3-methoxypyrrolidine-1-carbonyl)-5-azaspiro[2.4]heptan-7-yl)methanesulfonamide] | 10 to 100 | 90 to 100 | 
15 | CS(=O)(=O)N[C@@H]1[C@H](Cc2cccc(-c3ccccc3)c2F)N(C(=O)NC2CC(F)C2)CC12CC2 (stereo partly drawn) [Compound 315, (6S,7S)-6-((2-fluoro-[1,1′-biphenyl]-3-yl)methyl)-N-(3-fluorocyclobutyl)-7-(methylsulfonamido)-5-azaspiro[2.4]heptane-5-carboxamide] | 10 to 100 | 80 to 90 | 
16 | CO[C@@H](C)CN(C)C(=O)N1CC2(CC2)[C@H](NS(C)(=O)=O)[C@@H]1Cc1cccc(-c2ccccc2)c1F [Compound 316] | 1 to 10 | 90 to 100 | 
17 | COC[C@@H](C)N(C)C(=O)N1CC2(CC2)[C@H](NS(C)(=O)=O)[C@@H]1Cc1cccc(-c2ccccc2)c1F [Compound 317, (6S,7S)-6-((2-fluoro-[1,1′-biphenyl]-3-yl)methyl)-N-((R)-1-methoxypropan-2-yl)-N-methyl-7-(methylsulfonamido)-5-azaspiro[2.4]heptane-5-carboxamide] | 1 to 10 | 90 to 100 | 
18 | C[C@@H](CC#N)NC(=O)N1CC2(CC2)[C@H](NS(C)(=O)=O)[C@@H]1Cc1cccc(-c2ccccc2)c1F [Compound 318, (6S,7S)-N-((S)-1-cyanopropan-2-yl)-6-((2-fluoro-[1,1′-biphenyl]-3-yl)methyl)-7-(methylsulfonamido)-5-azaspiro[2.4]heptane-5-carboxamide] | 1 to 10 | 90 to 100 | 
19 | CS(=O)(=O)N[C@@H]1[C@H](Cc2cccc(-c3ccccc3)c2F)N(C(=O)NC23CC(F)(C2)C3)CC12CC2 [Compound 319, (6S,7S)-6-((2-fluoro-[1,1′-biphenyl]-3-yl)methyl)-N-(3-fluorobicyclo[1.1.1]pentan-1-yl)-7-(methylsulfonamido)-5-azaspiro[2.4]heptane-5-carboxamide] | 10 to 100 | 90 to 100 | 
20 | C[C@]1(NC(=O)N2CC3(CC3)[C@H](NS(C)(=O)=O)[C@@H]2Cc2cccc(-c3ccccc3)c2F)CCOC1 [Compound 320, (6S,7S)-6-((2-fluoro-[1,1′-biphenyl]-3-yl)methyl)-7-(methylsulfonamido)-N-((S)-3-methyltetrahydrofuran-3-yl)-5-azaspiro[2.4]heptane-5-carboxamide] | 10 to 100 | 90 to 100 | 
21 | CN(C(=O)N1CC2(CC2)[C@H](NS(C)(=O)=O)[C@@H]1Cc1cccc(-c2ccccc2)c1F)[C@H]1CCOC1 [Compound 321, (6S,7S)-6-((2-fluoro-[1,1′-biphenyl]-3-yl)methyl)-N-methyl-7-(methylsulfonamido)-N-((S)-tetrahydrofuran-3-yl)-5-azaspiro[2.4]heptane-5-carboxamide] | 10 to 100 | 90 to 100 | 
22 | CC1(CNC(=O)N2CC3(CC3)[C@H](NS(C)(=O)=O)[C@@H]2Cc2cccc(-c3ccccc3)c2F)COC1 [Compound 322, (6S,7S)-6-((2-fluoro-[1,1′-biphenyl]-3-yl)methyl)-N-((3-methyloxetan-3-yl)methyl)-7-(methylsulfonamido)-5-azaspiro[2.4]heptane-5-carboxamide] | 0.0794 to 1 | 90 to 100 | 
23 | C[C@H](O)CN(C)C(=O)N1CC2(CC2)[C@H](NS(C)(=O)=O)[C@@H]1Cc1cccc(-c2ccccc2)c1F [Compound 323, (6S,7S)-6-((2-fluoro-[1,1′-biphenyl]-3-yl)methyl)-N-((S)-2-hydroxypropyl)-N-methyl-7-(methylsulfonamido)-5-azaspiro[2.4]heptane-5-carboxamide] | 1 to 10 | 90 to 100 | 
24 | CO[C@H](C)CNC(=O)N1CC2(CC2)[C@H](NS(C)(=O)=O)[C@@H]1Cc1cccc(-c2ccccc2)c1F [Compound 324, (6S,7S)-6-((2-fluoro-[1,1′-biphenyl]-3-yl)methyl)-N-((R)-2-methoxypropyl)-7-(methylsulfonamido)-5-azaspiro[2.4]heptane-5-carboxamide] | 10 to 100 | 90 to 100 | 
